This is an account of results in patent publication US9205064B2, “Methods for the diagnosis of oncological disorders using epimetabolic shifters, multidimensional intracellular molecules, or environmental influencers” (Berg LLC, priority 2009, dated 2015).

In assay [1] the test system is Pancreatic Cancer Cells (PaCa2). Put plainly: Real-time PCR Apoptosis Array. It is filed as cell-based. Particulars: 100 uM Q10, various times. The method, then: Experiments were carried out essentially as described above.
For assay [2], the system named is Pyruvate Dehydrogenase beta (PDH-E1). The assay is described as follows: Western blot of pyruvate dehydrogenase beta levels. The assay is classed as cell-based, human. The method, then: The samples were processed and run on a 4-12% Bis-Tris Novex NuPAGE gel as described above. The gels were run, transferred and stained essentially as described above.
The pyruvate kinase blots were stripped by incubating for 30 minutes with methanol, followed by two 10 minute washes with TBS-T, then 30 minutes of incubation with Stripping buffer at 50 deg C., and followed by two washes with 100 ml or more of TBS-T for 30′ each. The 2 blots were scanned in laser scanner to check for complete stripping. After making sure stripping of the antibody and the ECF reagent has worked, the blots were activated with methanol for 5 seconds, washed with water for 5 minutes, and TBST for 15 minutes. The blots are blocked for 1 hour with 5% blocking reagent in TBS-T at room temperature and then washed 3 times with TBS-T (1×-15′; 2×5′ each) and probed with the antibody for Pyruvate Dehydrogenase in 5% BSA (ABNOVA catalog #H00005162-M03) at 1:500 dilutions) overnight at 4 deg C. with shaking. […]
The levels of LDH and PDH were determined by probing the blots successively with primary antibodies for LDH and PDH, essentially as described above. […]

For assay [3], the system named is MCF-7 breast cancer cells. The assay is described as follows: SeaHorse XF analyzer OCR and ECAR. It is filed as cell-based. The following applies: absence and presence of stressors. The text has this:
(§1) Environmental influencers (e.g., MIMs or Epi-shifters) may also be identified by changes in cellular energetics. One example of the measurement of cellular energetics are the real-time measures of the consumption of molecular oxygen and/or the change in pH of the media of a cell culture. For example, the ability of a potential epi-shifter to modulate the metabolic state of a cell may be analyzed using, for example, the XF24 Analyzer (Seahorse, Inc.). This technology allows for real time detection of oxygen and pH changes in a monolayer of cells in order to evaluate the bioenergetics of a cell microenvironment. The XF24 Analyzer measures and compares the rates of oxygen consumption (OCR), which is a measure of aerobic metabolism, and extracellular acidification (ECAR), which is a measure of glycolysis, both key indicators of cellular energetics.
(§2) (SeaHorse Biosciences Inc, North Billerica, Mass.).
(§3) In contrast, cancer cells (e.g., MCF-7, PaCa-2) are inherently primed to culture at higher levels of glucose compared to normal cells due to their glycolytic phenotype for maintenance in culture.

In assay [4] the test system is HepG2 (liver cancer) cells. The assay is described as follows: Real-time PCR Apoptosis Array. It is filed as cell-based. The method, then:
The treatment was initiated on 1×10^5 cells per well, following the procedure utilized in the PaCa2 cells (above, Examples 9-11). However, the total amount of RNA that was extracted from these samples was lower than expected. Reverse transcription is normally done using 1 μg of total RNA (determined by measurement at 260 nm). The maximum volume that can be used per reverse transcription is 8 μl.
However, the array for 48 hours was run choosing FAM as the fluorophore instead of SYBR. Both FAM and SYBR fluoresce at the same wavelength.

Another assay relates to SCC cells. Put plainly: Real-time PCR Diabetes Array. It is filed as cell-based. Particulars: 100 μM Q10, at 6 hours. An excerpt:
The control cells were untreated cells.
RNA was quantified by measuring Optical Density at 260 nm.

Assay [5] has as its system PaCa-2 pancreatic cancer cells. The assay is described as follows: SeaHorse XF analyzer OCR and ECAR. The assay is classed as cell-based.
Description: as §1, §2, §3
In contrast to normal cells, cancer cells are phenotypically primed to use high glucose for ATP generation (enhanced glycolysis) resulting in higher ECAR (Table 55, ECAR for untreated normoxia 17 mM) at 21 mpH/min. […]

For the molecule `COC1=C(OC)C(=O)C(C/C=C(\C)CC/C=C(\C)CC/C=C(\C)CC/C=C(\C)CC/C=C(\C)CC/C=C(\C)CC/C=C(\C)CC/C=C(\C)CC/C=C(\C)CCC=C(C)C)=C(C)C1=O` [Q10, Coenzyme Q10], the “mRNA of ABL1, AKT1, Bcl2L1, BclAF1, CASP1, CASP2, CASP6, CIDEA, FADD, LTA, TNF, TNFSF10A and TNFSF10” value in assay [1] was “modulated”. Moreover, the results for the “expression of PDH-E1” value in assay [2] (cancer cells) and in assay [2] (normal cells) were “progressive increase” and “minimal changes”, respectively. The OCR values entry in assay [3] is reported as “consistent reduction”; in assay [5] (absence and presence of stressors), “consistent reduction”. For the same molecule, the “genes regulated in the Apoptosis Arrays” value in assay [4] (100 μM Q10, gene BAG1) is recorded as “BAG1”; in assay [4] (100 μM Q10, gene CASP9) it was “CASP9”; in assay [4] (100 μM Q10, gene TNFRSF1A), “TNFRSF1A”. For the same molecule, the “INPPL1 Regulation” value in the assay on SCC cells is on record as “Down regulated at”. The ECAR rates entry in assay [5] (normoxia, high glucose) is listed as “significant decrease”.
